Data as given in patent US10780074B2, “Compounds and uses thereof” (Sunovion Pharmaceuticals Inc., priority 2017, dated 2020).
Where a name gives a salt, the structure may show the parent alone. Read-outs that look alike come from different tables or passages of the source.

Test system: behaviors of compound-treated mice
Test: Neuropharmacological Assay (SmartCube)
Type: in vivo
Conditions: for minimal effective dose: Mus musculus, ip, 0.25 h, dose having 50% or more total activity in SmartCube, read-out: MED (minimal effective dose)
In short: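 Behavioral signatures were captured automatically by video, and each drug class received a probability for the best of three i.p. doses given 15 min pre-test (vehicle: Pharmasolve/PEG/propylene glycol). Potency is given as MED, the lowest mpk dose (typically 0.3–30) reaching 50% or more total activity.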

[1] = i.p. 15 min before behavioral test, most efficacious dose(s) of 3 doses
[2] = SmartCube, i.p. 15 min before test, most efficacious dose(s)

SMILES | minimal effective dose (i.p.) | AD: ADHD (probability that activity matches class) [1] | AG: analgesic (probability that activity matches class) [1] | AX: anxiolytic (probability that activity matches class) [1] | CE: cognitive enhancer (probability that activity matches class) [1] | DP: anti-depressant (probability that activity matches class) [1] | MS: mood stabilizer (probability that activity matches class) [1] | PS: anti-psychotic (probability that activity matches class) [1] | SD: sedative hypnotic (probability that activity matches class) [1] | UN: uncharacterized CNS activity (probability that activity matches class) [1] | minimal effective dose | AD: ADHD (probability that activity matches class) [2] | AG: analgesic (probability that activity matches class) [2] | AX: anxiolytic (probability that activity matches class) [2] | CE: cognitive enhancer (probability that activity matches class) [2] | DP: anti-depressant (probability that activity matches class) [2] | MS: mood stabilizer (probability that activity matches class) [2] | PS: anti-psychotic (probability that activity matches class) [2] | SD: sedative hypnotic (probability that activity matches class) [2] | UN: uncharacterized CNS activity (probability that activity matches class) [2]
NC[C@@H]1OCc2c(-c3ccccn3)cccc21 (single isomer, unassigned) [Compound 41] | 10 to 30 mg/kg | + (LOQ ≤ + <5%) | + (LOQ ≤ + <5%) | ++ (5% ≤ ++ <25%) | ++ (5% ≤ ++ <25%) | ++ (5% ≤ ++ <25%) | + (LOQ ≤ + <5%) | + (LOQ ≤ + <5%) | ++ (5% ≤ ++ <25%) | ++++ (50% ≤ ++++) | – | – | – | – | – | – | – | – | – | –
NC[C@H]1OCCc2c(-c3ccon3)cccc21 (single isomer, unassigned) [Compound 89, hydrochloride salt] | ≤ 3 mg/kg | ++ (5% ≤ ++ <25%) | ++ (5% ≤ ++ <25%) | +++ (25% ≤ +++ <50%) | + (LOQ ≤ + <5%) | ++++ (50% ≤ ++++) | + (LOQ ≤ + <5%) | ++ (5% ≤ ++ <25%) | + (LOQ ≤ + <5%) | ++ (5% ≤ ++ <25%) | – | – | – | – | – | – | – | – | – | –
NC[C@@H]1OCc2c(-c3cccnc3)cccc21 [Compound 35, (R)-(4-(Pyridin-3-yl)-1,3-dihydroisobenzofuran-1-yl)methanamine hydrochloride] | 3 to 10 mg/kg | ++ (5% ≤ ++ <25%) | + (LOQ ≤ + <5%) | ++ (5% ≤ ++ <25%) | + (LOQ ≤ + <5%) | ++++ (50% ≤ ++++) | + (LOQ ≤ + <5%) | + (LOQ ≤ + <5%) | + (LOQ ≤ + <5%) | + (LOQ ≤ + <5%) | – | – | – | – | – | – | – | – | – | –
CNC[C@@H]1OCCc2c(-c3ccnc(C)c3)cccc21 (single isomer, unassigned) [Compound 120, hydrochloride salt] | 10 to 30 mg/kg | + (LOQ ≤ + <5%) | + (LOQ ≤ + <5%) | ++ (5% ≤ ++ <25%) | + (LOQ ≤ + <5%) | ++ (5% ≤ ++ <25%) | + (LOQ ≤ + <5%) | + (LOQ ≤ + <5%) | + (LOQ ≤ + <5%) | + (LOQ ≤ + <5%) | – | – | – | – | – | – | – | – | – | –
NC[C@H]1OCCc2c(-c3ccno3)cccc21 (single isomer, unassigned) [Compound 93, hydrochloride salt] | 10 to 30 mg/kg | + (LOQ ≤ + <5%) | + (LOQ ≤ + <5%) | + (LOQ ≤ + <5%) | + (LOQ ≤ + <5%) | + (LOQ ≤ + <5%) | + (LOQ ≤ + <5%) | + (LOQ ≤ + <5%) | + (LOQ ≤ + <5%) | + (LOQ ≤ + <5%) | – | – | – | – | – | – | – | – | – | –
CCNC[C@H]1OCCc2c(-c3ccncc3)cccc21 (single isomer, unassigned) [Compound 67, hydrochloride salt] | ≤ 3 mg/kg | + (LOQ ≤ + <5%) | + (LOQ ≤ + <5%) | + (LOQ ≤ + <5%) | + (LOQ ≤ + <5%) | ++++ (50% ≤ ++++) | + (LOQ ≤ + <5%) | + (LOQ ≤ + <5%) | + (LOQ ≤ + <5%) | ++ (5% ≤ ++ <25%) | – | – | – | – | – | – | – | – | – | –
NCC1OCCc2ccc(-c3ccncn3)cc21 (stereo not shown) [Compound 57, 7-(Pyrimidin-4-yl)isochroman-1-yl)methanamine hydrochloride] | 10 to 30 mg/kg | + (LOQ ≤ + <5%) | + (LOQ ≤ + <5%) | + (LOQ ≤ + <5%) | ++ (5% ≤ ++ <25%) | ++ (5% ≤ ++ <25%) | + (LOQ ≤ + <5%) | ++ (5% ≤ ++ <25%) | ++ (5% ≤ ++ <25%) | +++ (25% ≤ +++ <50%) | – | – | – | – | – | – | – | – | – | –
NC[C@@H]1OCCc2c(-c3ncc[nH]3)cccc21 (single isomer, unassigned) [Compound 108, hydrochloride salt] | 10 to 30 mg/kg | + (LOQ ≤ + <5%) | ++ (5% ≤ ++ <25%) | ++ (5% ≤ ++ <25%) | + (LOQ ≤ + <5%) | ++ (5% ≤ ++ <25%) | + (LOQ ≤ + <5%) | ++ (5% ≤ ++ <25%) | ++ (5% ≤ ++ <25%) | +++ (25% ≤ +++ <50%) | – | – | – | – | – | – | – | – | – | –
NC[C@H]1OCCc2c1cccc2-n1cccn1 [Compound 189, (S)-(5-(1H-pyrazol-1-yl)isochroman-1-yl)methanamine hydrochloride salt] | – | – | – | – | – | – | – | – | – | – | 10 to 30 mg/kg | ++ (5% ≤ ++ <25%) | + (LOQ ≤ + <5%) | ++ (5% ≤ ++ <25%) | + (LOQ ≤ + <5%) | ++ (5% ≤ ++ <25%) | + (LOQ ≤ + <5%) | + (LOQ ≤ + <5%) | + (LOQ ≤ + <5%) | ++++ (50% ≤ ++++)
NC[C@H]1OCCc2c(-c3ncc[nH]3)cccc21 [Compound 109, (S)-(5-(1H-Imidazol-2-yl)isochroman-1-yl)methanamine hydrochloride salt] | > 30 mg/kg | + (LOQ ≤ + <5%) | + (LOQ ≤ + <5%) | ++ (5% ≤ ++ <25%) | + (LOQ ≤ + <5%) | ++ (5% ≤ ++ <25%) | + (LOQ ≤ + <5%) | + (LOQ ≤ + <5%) | + (LOQ ≤ + <5%) | + (LOQ ≤ + <5%) | – | – | – | – | – | – | – | – | – | –
CNC[C@@H]1OCCCc2c(-c3ccccn3)cccc21 (single isomer, unassigned) [Compound 156, hydrochloride salt] | 10 to 30 mg/kg | + (LOQ ≤ + <5%) | + (LOQ ≤ + <5%) | + (LOQ ≤ + <5%) | + (LOQ ≤ + <5%) | + (LOQ ≤ + <5%) | + (LOQ ≤ + <5%) | + (LOQ ≤ + <5%) | + (LOQ ≤ + <5%) | + (LOQ ≤ + <5%) | – | – | – | – | – | – | – | – | – | –
NC[C@H]1OCCc2ccc(-c3ccncc3)cc21 [Compound 48, (S)-(7-(pyridin-4-yl)isochroman-1-yl)methanamine hydrochloride] | 3 to 10 mg/kg | + (LOQ ≤ + <5%) | + (LOQ ≤ + <5%) | ++ (5% ≤ ++ <25%) | ++ (5% ≤ ++ <25%) | + (LOQ ≤ + <5%) | + (LOQ ≤ + <5%) | ++ (5% ≤ ++ <25%) | +++ (25% ≤ +++ <50%) | +++ (25% ≤ +++ <50%) | – | – | – | – | – | – | – | – | – | –
CNC[C@H]1OCCc2cc(-c3cccnn3)ccc21 (single isomer, unassigned) [Compound 32, hydrochloride] | > 30 mg/kg | + (LOQ ≤ + <5%) | + (LOQ ≤ + <5%) | + (LOQ ≤ + <5%) | + (LOQ ≤ + <5%) | + (LOQ ≤ + <5%) | + (LOQ ≤ + <5%) | + (LOQ ≤ + <5%) | + (LOQ ≤ + <5%) | + (LOQ ≤ + <5%) | – | – | – | – | – | – | – | – | – | –
